Results: ChEMBL document CHEMBL1145929, “Syntheses and binding studies of new [(aryl)(aryloxy)methyl]piperidine derivatives and related compounds as potential antidepressant drugs with high affinity for serotonin (5-HT) and norepinephrine (NE) transporters” (J Med Chem, 2003)

Experiments:
[1] = biological target: T1, 5-hydroxytryptamine receptor 2A (Rattus norvegicus, UniProt P14842); test: Binding affinity against 5-hydroxytryptamine 2A receptor by displacement of [3H]-ketanserin from rat prefrontal cerebral cortex mambranes; type: tissue-based, Frontal cortex
T1 sequence (P14842 whole entry): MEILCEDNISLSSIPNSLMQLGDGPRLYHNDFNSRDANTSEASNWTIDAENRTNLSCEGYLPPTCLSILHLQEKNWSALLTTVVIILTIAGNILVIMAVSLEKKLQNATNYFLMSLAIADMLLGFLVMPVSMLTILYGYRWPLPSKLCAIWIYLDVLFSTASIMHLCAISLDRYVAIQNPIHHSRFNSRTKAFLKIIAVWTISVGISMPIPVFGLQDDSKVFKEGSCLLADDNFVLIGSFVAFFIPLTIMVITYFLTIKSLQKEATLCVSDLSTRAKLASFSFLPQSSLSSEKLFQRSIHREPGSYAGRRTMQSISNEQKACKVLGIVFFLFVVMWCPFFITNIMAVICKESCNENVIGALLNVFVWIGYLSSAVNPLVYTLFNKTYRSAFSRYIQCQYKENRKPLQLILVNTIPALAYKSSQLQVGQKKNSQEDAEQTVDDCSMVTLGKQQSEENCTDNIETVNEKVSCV

[2] = biological target: T2, Sodium-dependent serotonin transporter (Rattus norvegicus, UniProt P31652); test: Binding affinity to the serotonin transporter (SERT) measured by displacement of [3H]paroxetine in male wistar rats
T2 sequence (P31652 whole entry): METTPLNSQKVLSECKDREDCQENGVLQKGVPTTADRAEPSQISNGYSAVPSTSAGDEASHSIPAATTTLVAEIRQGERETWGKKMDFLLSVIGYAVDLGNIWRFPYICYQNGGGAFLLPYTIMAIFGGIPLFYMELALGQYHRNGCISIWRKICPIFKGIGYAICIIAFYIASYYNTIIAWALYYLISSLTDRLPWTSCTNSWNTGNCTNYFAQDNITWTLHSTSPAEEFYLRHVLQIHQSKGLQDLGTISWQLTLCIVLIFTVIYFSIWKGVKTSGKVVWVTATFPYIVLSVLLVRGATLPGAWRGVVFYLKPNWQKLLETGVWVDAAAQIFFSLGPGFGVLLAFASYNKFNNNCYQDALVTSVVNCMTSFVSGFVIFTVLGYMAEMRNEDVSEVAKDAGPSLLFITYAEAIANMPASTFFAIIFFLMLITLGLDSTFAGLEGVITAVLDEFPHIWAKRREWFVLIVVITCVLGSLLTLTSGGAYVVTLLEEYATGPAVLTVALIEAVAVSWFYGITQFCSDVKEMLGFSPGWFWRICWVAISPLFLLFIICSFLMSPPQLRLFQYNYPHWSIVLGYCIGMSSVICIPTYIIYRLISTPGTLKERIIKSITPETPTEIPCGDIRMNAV

[3] = biological target: T3, 5-hydroxytryptamine receptor 1A (Rattus norvegicus, UniProt P19327); test: Binding affinity against 5-hydroxytryptamine 1A receptor (5-HT1A) by displacement of [3H]8-OH-DPAT from rat hippocampus membranes; type: cell membranes, Membrane
T3 sequence (P19327 whole entry): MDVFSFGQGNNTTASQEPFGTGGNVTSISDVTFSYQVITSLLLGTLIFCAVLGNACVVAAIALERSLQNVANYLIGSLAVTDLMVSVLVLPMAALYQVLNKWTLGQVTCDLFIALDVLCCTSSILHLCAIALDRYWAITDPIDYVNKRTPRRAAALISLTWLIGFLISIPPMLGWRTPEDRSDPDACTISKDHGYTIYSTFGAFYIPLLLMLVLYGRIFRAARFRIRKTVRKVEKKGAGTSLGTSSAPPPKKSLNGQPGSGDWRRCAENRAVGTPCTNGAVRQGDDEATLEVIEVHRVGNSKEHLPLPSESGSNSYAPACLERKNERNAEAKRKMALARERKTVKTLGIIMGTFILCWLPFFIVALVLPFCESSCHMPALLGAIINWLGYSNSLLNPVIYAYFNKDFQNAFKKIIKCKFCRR

[4] = biological target: T2, Sodium-dependent serotonin transporter; test: Binding affinity against serotonin transporter (SERT) by displacement of [3H]paroxetine in male wistar rats
[5] = biological target: T1, 5-hydroxytryptamine receptor 2A; test: Binding affinity against 5-hydroxytryptamine 2A receptor by displacement of [3H]ketanserin from rat prefrontal cerebral cortex mambranes; type: tissue-based, Frontal cortex
[6] = biological target: Sodium-dependent dopamine transporter (Rattus norvegicus, UniProt P23977); test: Binding affinity against dopamine transporter (DAT) by displacement of [3H]WIN-35428 in male wistar rats
Sequence of Sodium-dependent dopamine transporter (P23977 whole entry): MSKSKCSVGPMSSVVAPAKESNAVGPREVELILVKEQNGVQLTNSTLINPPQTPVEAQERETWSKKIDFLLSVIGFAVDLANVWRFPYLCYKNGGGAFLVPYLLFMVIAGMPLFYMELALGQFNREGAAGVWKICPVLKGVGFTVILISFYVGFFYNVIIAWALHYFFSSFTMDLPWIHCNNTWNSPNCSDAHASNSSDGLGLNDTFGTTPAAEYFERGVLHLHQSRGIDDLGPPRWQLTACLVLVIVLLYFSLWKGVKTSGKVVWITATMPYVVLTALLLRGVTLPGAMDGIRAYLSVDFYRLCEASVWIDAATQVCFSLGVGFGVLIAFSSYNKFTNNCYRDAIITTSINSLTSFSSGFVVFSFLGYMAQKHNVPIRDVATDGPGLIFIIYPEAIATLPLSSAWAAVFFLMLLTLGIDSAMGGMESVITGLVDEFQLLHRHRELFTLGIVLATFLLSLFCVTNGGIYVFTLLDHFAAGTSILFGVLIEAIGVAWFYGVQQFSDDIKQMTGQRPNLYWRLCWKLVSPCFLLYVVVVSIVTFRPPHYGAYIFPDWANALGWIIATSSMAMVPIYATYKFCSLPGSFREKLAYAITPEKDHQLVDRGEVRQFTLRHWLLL

[7] = biological target: Norepinephrine transporter (Rattus norvegicus, UniProt Q9WTR4); test: Binding affinity against norepinephrine transporter (NET) by displacement of [3H]nisoxetine in male wistar rats
Sequence of Norepinephrine transporter (Q9WTR4 whole entry): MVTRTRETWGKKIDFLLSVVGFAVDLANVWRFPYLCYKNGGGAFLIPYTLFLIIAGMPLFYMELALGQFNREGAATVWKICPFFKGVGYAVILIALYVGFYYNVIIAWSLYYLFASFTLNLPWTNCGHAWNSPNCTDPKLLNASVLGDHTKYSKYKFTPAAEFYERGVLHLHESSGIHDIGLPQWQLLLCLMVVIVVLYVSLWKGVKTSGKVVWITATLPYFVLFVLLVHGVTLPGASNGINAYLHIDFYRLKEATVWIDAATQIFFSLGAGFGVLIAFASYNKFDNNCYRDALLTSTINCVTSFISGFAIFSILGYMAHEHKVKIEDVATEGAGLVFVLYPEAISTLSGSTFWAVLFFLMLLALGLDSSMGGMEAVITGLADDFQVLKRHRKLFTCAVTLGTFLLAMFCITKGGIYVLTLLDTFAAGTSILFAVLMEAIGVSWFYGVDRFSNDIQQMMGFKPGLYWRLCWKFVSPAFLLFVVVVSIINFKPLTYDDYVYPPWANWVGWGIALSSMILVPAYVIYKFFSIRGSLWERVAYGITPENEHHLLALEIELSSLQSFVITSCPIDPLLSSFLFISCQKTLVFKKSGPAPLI

Compound	IC50 [1] [µM]	Ki [2] [µM]	IC50 [3] [µM]	IC50 [4] [µM]	further results
Fc1cccc(OC(c2ccccc2)C2CCCC2)c1 (stereo not given)	> 1		> 1	> 1	
COc1cc2c(cc1OC)CN(CCC(Oc1ccccc1F)c1ccccc1)CC2 (stereo not given)	> 1	0.207	> 1		
Cc1ccc(Cl)cc1OC(c1ccccc1)C1CCNCC1 (stereo not given)	> 1	0.0156	> 1		
c1ccc(-c2ccc(OC(c3ccccc3)C3CCNCC3)cc2)cc1 (stereo not given)	> 1		> 1	> 1	
Fc1ccc(OC(c2ccc(F)cc2)C2CCCNC2)cc1 (stereo not given)	> 1	0.0234	> 1		
Oc1cc2c(cc1O)CN(CCC(Oc1ccccc1C(F)(F)F)c1ccccc1)CC2 (stereo not given)	> 1		> 1	> 1	
CN1CCC(C(Oc2ccc(F)cc2)c2ccccc2)CC1 (stereo not given)			> 1	> 1	Ki [5]: 0.0444 µM
CC(=O)N1CCC(C(Oc2ccccc2)c2ccc(F)cc2)CC1 (stereo not given)	> 1		> 1	> 1	
O=[N+]([O-])c1ccc(OC(c2ccccc2)C2CCNCC2)cc1 (single isomer, unassigned; (+))	> 1		> 1		IC50 [6]: > 1 µM; IC50 [7]: > 1 µM
Fc1cccc(OC(c2cccc(F)c2)C2CCNCC2)c1 (single isomer, unassigned; (+))	> 1	0.0028	> 1		IC50 [6]: > 0.5 µM
Fc1cccc(C(Oc2ccccc2F)C2CCNCC2)c1 (single isomer, unassigned; (+))	> 1		> 1		Ki [7]: 0.0481 µM
Fc1ccccc1OC(c1ccccc1)C1CCNCC1 (single isomer, unassigned; (-))	> 1		> 1		IC50 [6]: > 1 µM; Ki [7]: 0.0225 µM
N#Cc1cccc(OC(c2ccccc2)C2CCNCC2)c1 (single isomer, unassigned; (-))	> 1	0.0014	> 1		Ki [6]: 0.11 µM
FC(F)(F)c1ccc(OC(c2ccccc2)C2CCNCC2)cc1 (single isomer, unassigned; (-))					IC50 [6]: > 1 µM; IC50 [7]: > 1 µM
Fc1cc(F)cc(OC(c2ccccc2)C2CCNCC2)c1 (stereo in doubt; 15aj)	> 1	0.0034	> 1		
Fc1ccccc1OC(c1ccccc1)C1CCNCC1 (stereo in doubt; 15b)	> 1	0.0063	> 1		
O=[N+]([O-])c1ccc(OC(c2ccccc2)C2CCNCC2)cc1 (stereo in doubt; 15m)	> 1	0.0024	> 1		
Brc1ccc(OC(c2ccccc2)C2CCNCC2)cc1 (stereo in doubt; 15r)	> 1	0.002	> 1		
Fc1cccc(C(Oc2ccccc2F)C2CCNCC2)c1 (stereo in doubt; 15t)	> 1	0.0093	> 1		
Fc1cccc(OC(c2cccc(F)c2)C2CCNCC2)c1 (stereo in doubt; 15u)	> 1	0.0161	> 1		
Fc1cc(F)cc(OC(c2ccccc2)C2CCNCC2)c1 (stereo in doubt; (+)-15aj)	> 1	0.0071	> 1		IC50 [6]: > 0.5 µM
Fc1ccc(OC(c2ccccc2)C2CCNCC2)cc1 (stereo in doubt; (+)-15p)	> 1	0.0004	> 1		Ki [6]: 0.821 µM
FC(F)(F)c1ccc(OC(c2ccccc2)C2CCNCC2)cc1 (stereo in doubt; (+)-15q)					IC50 [6]: > 1 µM; IC50 [7]: > 1 µM
Fc1cc(F)cc(OC(c2ccccc2)C2CCNCC2)c1 (stereo in doubt; (-)-15aj)	> 1		> 1		IC50 [6]: > 1 µM
Fc1cccc(OC(c2ccccc2)C2CCNCC2)c1 (stereo in doubt; (-)-15j)	> 1		> 1		Ki [7]: 0.0135 µM

Continued, in another order:

IC50 [1] [µM]	Ki [2] [µM]	IC50 [3] [µM]	IC50 [4] [µM]	Compound	further results
> 1	0.04	> 1		N#Cc1ccc(OC(c2ccc(F)cc2)C2CCCNC2)cc1 (stereo not given)	
> 1	0.0037	> 1		Ic1cccc(OC(c2ccccc2)C2CCNCC2)c1 (stereo not given)	
		> 1	> 1	Nc1ccc(OC(CCC(=O)C2CCN(c3ccc(F)cc3)CC2)c2ccc(F)cc2)cc1 (stereo not given)	Ki [5]: 0.0144 µM
		> 1	> 1	c1ccc(-c2ccccc2OC(c2ccccc2)C2CCNCC2)cc1 (stereo not given)	Ki [5]: 0.149 µM
> 1		> 1	0.325	COc1cc2c(cc1OC)CN(CCC(Oc1ccc(C)cc1)c1ccccc1)CC2 (stereo not given)	
> 1	0.0099	> 1		Clc1ccc(OC(c2ccccc2)C2CCNCC2)cc1Cl (stereo not given)	
> 1		> 1	> 1	Fc1ccccc1OC(CCN1CCc2ccccc2C1)c1ccccc1 (stereo not given)	
> 1		> 1	> 1	COc1ccc(OC(c2ccc(F)cc2)C2CCN(C(C)=O)CC2)cc1 (stereo not given)	
> 1		> 1	> 1	Cc1ccc(OC(CCN2CCc3ccccc3C2)c2ccccc2)cc1 (stereo not given)	
> 1	0.009	> 1		FC(F)(F)c1cccc(OC(c2ccccc2)C2CCNCC2)c1 (stereo not given)	
> 1	0.105	> 1		N#Cc1ccccc1OC(c1ccccc1)C1CCNCC1 (stereo not given)	
> 1		> 1	> 1	Oc1cc2c(cc1O)CN(CCC(Oc1ccc(Cl)cc1)c1ccccc1)CC2 (stereo not given)	
> 1		> 1	> 1	Oc1cc2c(cc1O)CN(CCC(Oc1ccccc1F)c1ccccc1)CC2 (stereo not given)	
		> 1	> 1	O=C(CCC(Oc1ccc([N+](=O)[O-])cc1)c1ccccc1)C1CCN(c2ccc(F)cc2)CC1 (stereo not given)	Ki [5]: 0.023 µM
> 1	0.0122	> 1		Cc1c(Cl)cccc1OC(c1ccccc1)C1CCNCC1 (stereo not given)	
> 1	0.0155	> 1		Oc1c(F)cccc1OC(c1ccccc1)C1CCNCC1 (stereo not given)	
		> 1	> 1	O=C(CCC(Oc1ccc([N+](=O)[O-])cc1)c1ccc(F)cc1)C1CCN(c2ccc(F)cc2)CC1 (stereo not given)	Ki [5]: 0.0551 µM
> 1	0.124	> 1		FC(F)(F)c1ccccc1OC(c1ccccc1)C1CCNCC1 (stereo not given)	

IC50 [1] [µM]	Ki [2] [µM]	IC50 [3] [µM]	IC50 [4] [µM]	Compound	further results
> 1		> 1	> 1	Fc1cccc(OC(c2ccccc2)C2CCOCC2)c1 (stereo not given)	
	0.0783	> 1		Fc1ccc(OC(CC2CCNCC2)c2ccccc2)cc1 (stereo not given)	Ki [5]: 0.14 µM
		> 1	> 1	FC(F)(F)c1cccc(OC(CCN2CCN(c3nsc4ccccc34)CC2)c2ccccc2)c1 (stereo not given)	Ki [5]: 0.0282 µM
	0.0677	> 1		Fc1ccc(OC(CC2CCNCC2)c2ccc(F)cc2)cc1 (stereo not given)	Ki [5]: 0.194 µM
> 1		> 1	> 1	Cc1ccc(OC(CCN2CCc3cc(O)c(O)cc3C2)c2ccccc2)cc1 (stereo not given)	
	0.0058	> 1		Fc1ccc(OC(c2cccc(F)c2)C2CCNCC2)cc1 (stereo not given)	Ki [5]: 0.36 µM
> 1		> 1	> 1	COc1cc2c(cc1OC)CN(CCC(Oc1ccc(Cl)cc1)c1ccccc1)CC2 (stereo not given)	
> 1	0.0019	> 1		COc1cc(F)cc(OC(c2ccccc2)C2CCNCC2)c1 (stereo not given)	
> 1		> 1	> 1	Clc1ccc(OC(CCN2CCc3ccccc3C2)c2ccccc2)cc1 (stereo not given)	
> 1	0.0226	> 1		Cc1ccc(OC(c2ccc(F)cc2)C2CCCNC2)cc1 (stereo not given)	
> 1		> 1	> 1	FC(F)(F)c1ccccc1OC(CCN1CCc2ccccc2C1)c1ccccc1 (stereo not given)	
> 1	0.0014	> 1		N#Cc1cccc(OC(c2ccccc2)C2CCNCC2)c1 (single isomer, unassigned; (+))	IC50 [6]: > 1 µM
> 1	0.0083	> 1		c1ccc(C(Oc2cccc3ccccc23)C2CCNCC2)cc1 (stereo in doubt; 15au)	
> 1	0.001	> 1		N#Cc1cccc(OC(c2ccccc2)C2CCNCC2)c1 (stereo in doubt; 15k)	
> 1	0.0011	> 1		Fc1ccc(OC(c2ccccc2)C2CCNCC2)cc1 (stereo in doubt; 15p)	
> 1		> 1		Clc1cccc(OC(c2ccccc2)C2CCNCC2)c1 (stereo in doubt; (+)-15l)	IC50 [6]: > 1 µM
> 1		> 1		Clc1cccc(OC(c2ccccc2)C2CCNCC2)c1 (stereo in doubt; (-)-15l)	IC50 [6]: > 0.5 µM
